# Source: patent US8673370B2, “Method of improving cardiovascular health” (.Kemin Foods, L.C., priority 2006, dated 2014)
# Columns and labels:
# Assay type in all cases: in vivo, rat
# [1] = tested on: spontaneously hypertensive (SHR) rats; assay: Heart rate (HR), daily for 14 days, in conscious catheterized hypertensive rats; settings: for Effect on heart rate (in words): vs. control fed food only (SHR-Control)
# Method: (§1) Additionally, daily soy isoflavone (SoyLife®, Acatris, Minneapolis, Minn.) supplementation was administered with BCX to both normotensive (WKY) and spontaneously hypertensive (SHR) rats to determine any beneficial hemodynamic contributions of soy to genetic hypertension. Animals receiving daily oral doses of BCX or BCX combined with the soy extract and comparisons of specific hemodynamic parameters (heart rate and blood pressure) were monitored for a period of two weeks in SHR rats and their genetically WKY counterparts. Plasma hydrogen peroxide concentrations were evaluated and show the effects of BCX on reactive oxygen species and their purported contribution to elevations in blood pressure in this hypertensive animal paradigm (Wilcox C. S., Reactive oxygen species: roles in blood pressure and kidney function. Curr Hypertens Rep. 2002 April; 4(2):160-6).
# (§2) 1. Three days prior to the beginning of experiments, femoral arterial and venous catheters were implanted for the measurement of blood pressure and heart rate and for the collection of blood samples for the analysis of plasma CRP and cholesterol. Animals were housed in metabolic cages for chronic daily analysis for the remainder of the protocol.
# (§3) SHR and WKY rats (Harlan, Indianapolis, Ind.) at age 10 weeks and weighing ˜250 g were used as experimental subjects and monitored for a two week period. All experimental protocols were performed in conscious, unrestrained animals. The animals were individually housed in wire mesh cages in temperature-controlled rooms (23° C.) with a 12-hour light/dark cycle. Each animal was allowed free access to isoflavone reduced chow (Harlan, Indianapolis, Ind.) and distilled water throughout the protocol(s). In addition to ad libitum food and water, animals were dosed daily by oral gavage with BCX (1.0 mg/kg, in safflower oil) or BCX+soy (1.0 mg BCX/kg+80 mg isoflavones/kg, in safflower oil). BCX dosage levels were based on the amount of BCX humans consume when eating according to the Dietary Guidelines for Americans: 0.5-1.0 mg per day (United States Department of Health and Human Services and United States Department of Agriculture. Dietary Guidelines for Americans 2005. Jan. 12, 2005. http://www.healthierus.gov/dietaryguidelines/; Centers for Disease Control and Prevention. National Center for Health Statistics. National Health and Nutrition Examination Survey Data 2001-2002. http://www.cdc.gov/nchs/about/major/nhanes/nhanes01-02.htm).
# (§4) All surgical procedures were performed in animals anesthetized with sodium pentobarbital (Nembutal®, Abbott Laboratories) at a dose of 50 mg/kg, i.p. In addition, all surgery was performed under sterile conditions in a location in the laboratory dedicated for that purpose and according to those procedures adopted by the IACUC at Des Moines University-Osteopathic Medical Center. The implantations of femoral arterial and venous catheters were performed three days prior to any experimentation. The arterial and venous catheters were constructed from silicone and Tygon® tubing (Saint-Gobain Performance Plastics Corporation). The smaller silicone tubing was placed within the vessel, via the external iliac artery, to minimize tissue irritation and reaction. Normal body temperature was maintained during anesthesia via an electronically maintained dermal pad. The animals were shaved at the top of the head, back of the neck and the inner left leg. […]
# [2] = tested on: spontaneously hypertensive (SHR) rats; assay: Mean arterial pressure (MAP), daily for 14 days, in conscious catheterized hypertensive rats
# Method: as §1, §2, §3
# as §4, with “leg. The silicone tips were inserted through a 3.0 cm incision made on the inner left leg for cannulation of the internal iliac vein and femoral artery; the arterial catheter was sutured to the leg in a manner preventing occlusion of the catheter during normal rat movement. Excess catheter was directed subcutaneously and externalized through a 2.5 cm incision made in the dermis overlying bregma. The cranial incision was made with a scalpel after which three 0.19″ jeweler's screws were attached to the cranium in a 1.0 cm^2 area which encompasses bregma.” for “leg.”
# normotensive (WKY) rats [3] = assay: Heart rate (HR), daily for 14 days, in conscious catheterized normotensive rats
# Method: as §1, §2
# (§5) SHR and WKY rats (Harlan, Indianapolis, Ind.) at age 10 weeks and weighing ˜250 g were used as experimental subjects and monitored for a two week period. All experimental protocols were performed in conscious, unrestrained animals. The animals were individually housed in wire mesh cages in temperature-controlled rooms (23° C.) with a 12-hour light/dark cycle. Each animal was allowed free access to isoflavone reduced chow (Harlan, Indianapolis, Ind.) and distilled water throughout the protocol(s). In addition to ad libitum food and water, animals were dosed daily by oral gavage with BCX (1.0 mg/kg, in safflower oil) or BCX+soy (1.0 mg BCX/kg+80 mg isoflavones/kg, in safflower oil). […]
# normotensive (WKY) rats [4] = assay: Mean arterial pressure (MAP), daily for 14 days, in conscious catheterized normotensive rats; settings: for Blood pressure, Significance, comparison over 14 days: WKY rats
# Method: as §1, §2, §5
# [5] = vs. SHR-Control (rat chow only)
# [6] = vs. SHR-Saff (safflower oil only)
# [7] = vs. WKY-Saff (safflower oil only)
compound,measurement,setting,value
"CC1=C(/C=C/C(C)=C/C=C/C(C)=C/C=C/C=C(C)/C=C/C=C(C)/C=C/C2=C(C)C[C@@H](O)CC2(C)C)C(C)(C)CCC1 [BCX, β-cryptoxanthin]","Heart rate, Significance, comparison over 14 days",[1]; [5],Yes
same,Days with statistically significant lower heart rate,"[1]; vs. SHR-Control, p<0.05",6 to 13 days
same,"Heart rate, Significance, comparison over 14 days",[1]; [6],No
same,Effect on heart rate (in words),[1],statistically decreased the heart rate
same,Effect on heart rate (in words),[1]; listed as β-cryptoxanthin,significantly lower
same,Days with statistically significant difference in blood pressure,"[2]; vs. SHR controls, p<0.05",4 to 13 days
same,"Blood pressure, Significance, comparison over 14 days",[2]; [5],Yes
same,"Blood pressure, Significance, comparison over 14 days",[2]; [6],No
same,Effect on mean arterial pressure / blood pressure (in words),[2]; vs. control fed food only (SHR-Control),statistically decreased the blood pressure
same,Effect on mean arterial pressure / blood pressure (in words),"[2]; vs. control fed food only (SHR-Control), listed as β-cryptoxanthin",significantly lower
same,Effect on mean arterial pressure / blood pressure (in words),[2]; vs. safflower oil control (SHR-Saff),significantly lower
same,Effect on heart rate (in words),normotensive (WKY) rats [3]; vs. WKY-Control,statistical decrease in heart rate
same,"Heart rate, Significance, comparison over 14 days",normotensive (WKY) rats [3]; vs. WKY-Control,Yes
same,"Heart rate, Significance, comparison over 14 days",normotensive (WKY) rats [3]; [7],No
same,Change in blood pressure (in words),"normotensive (WKY) rats [4]; WKY normotensive rats, over 14 days of supplementation",did not show any significant blood pressure change
same,"Blood pressure, Significance, comparison over 14 days",normotensive (WKY) rats [4]; vs. WKY-Control,No
same,"Blood pressure, Significance, comparison over 14 days",normotensive (WKY) rats [4]; [7],No
